Data as given in PMC11413853, “Discovery of VU6007496: Challenges in the Development of an M1 Positive Allosteric Modulator Backup Candidate” (ACS Chemical Neuroscience, 2024).
Read-outs that look alike come from different tables or passages of the source.

What was measured:
[1] = molecular target: T1, mouse M1 (Mus musculus, UniProt P12657); assay: Calcium mobilization assay, mouse M1 PAM; format: cell-based; conditions: PAM mode
T1 construct: expressed in transfected cells; host or cells: CHO (stated in general for all functional cell-based assays)

[2] = system: rats; assay: Novel object recognition (NOR) test; format: in vivo, rat
Method: Novel Object Recognition Task
Rats were habituated for 10 min for 2 consecutive days in an empty novel object recognition (NOR) arena consisting of dark-colored plexiglass box (40 × 64 × 33 cm3). On day 3, rats were administered vehicle (0.5% natrasol/0.015% Tween80) or M1 PAM (0.1-3 mg/kg, p.o.., 10 mL/kg, n = 15-18) and returned to their home cage for 30 min. Rats were then placed in the NOR arena containing two identical objects for 10 min. Following the exposure period, rats were placed back into their home cages for 24 h. The rats were then returned to the arena in which one of the previously exposed (familiar) objects was replaced by a novel object and were video recorded for 5 min while they explored the two objects. Time spent exploring each object was scored by an observer blinded to the experimental conditions and the recognition index was calculated as [(time spent exploring novel object) – (time spent exploring familiar object)]/total time exploring objects.
Supplemental field electrophysiology methods
Recording pipettes were constructed from thin-walled borosilicate capillary glass tubing (I.D.=1.17 mm, O.D. 1.50 mm; Warner Instruments, Hamden, CT), pulled with a horizontal pipette puller (P-97 Sutter Instrument Co., Novata, CA) to a resistance of 1-3MΩ when filled with ACSF. […]

[3] = system: rCYP2J2; assay: Substrate depletion with recombinant human CYPs, rCYP2J2; format: in vitro ADME
Excerpt: (§1) To advance 11 as a candidate and into IND-enabling studies, we next needed to better understand its CYP profile to minimize drug–drug interactions in the clinic. […] We were pleased to see the contribution of another CYP beyond 3A4 for the metabolism of 11.[21] In parallel, we investigated the ability of PAM 11 to induce the expression of CYP450s (measuring mRNA) in cryopreserved human hepatocytes from three separate donors.

[4] = system: rCYP3A4; assay: Substrate depletion with recombinant human CYPs, rCYP3A4; format: in vitro ADME
Excerpt: as §1

[5] = Rat dose escalation study (p.o., 30% captisol); format: in vivo; conditions: for Cmax: brain, read-out: total brain concentration at Cmax
Method: While awaiting more definitive MET ID studies in multispecies hepatocytes, we elected to perform a rat dose escalation study to assess exposures in a standard, tox-friendly oral vehicle (30% captisol) to lay the foundation for dose range finding/maximum tolerated dose (DRF/MTD) studies. Male Sprague–Dawley rats were dosed with VU6007496 (11) at doses of 3, 10, 30, 100, and 300 mg/kg p.o. in 30% captisol. […]. […] Recall, exposures in rat at the NOR MED were 990 nM total and 39.8 nM unbound brain concentrations, respectively. […]

[6] = system: Adrenergic α1B; assay: Eurofins radioligand binding; parameters: species or system Human; conditions: specific binding
[7] = system: Adrenergic α2A; assay: Eurofins radioligand binding; parameters: species or system Human; conditions: specific binding
[8] = system: Adrenergic β1; assay: Eurofins radioligand binding; parameters: species or system Human; conditions: specific binding
[9] = system: Adrenergic β2; assay: Eurofins radioligand binding; parameters: species or system Human; conditions: specific binding
[10] = system: Bradykinin B2; assay: Eurofins radioligand binding; parameters: species or system Human; conditions: specific binding
[11] = system: Calcium Channel N-Type; assay: Eurofins radioligand binding; parameters: species or system Rat; conditions: specific binding
[12] = system: Dopamine D2S; assay: Eurofins radioligand binding; parameters: species or system Human; conditions: specific binding
[13] = system: Dopamine D4.4; assay: Eurofins radioligand binding; parameters: species or system Human; conditions: specific binding
[14] = system: Endothelin ETA; assay: Eurofins radioligand binding; parameters: species or system Human; conditions: specific binding
[15] = system: GABAA, Muscimol, Central; assay: Eurofins radioligand binding; parameters: species or system Rat; conditions: specific binding
[16] = system: Glutamate, NMDA, Phencyclidine; assay: Eurofins radioligand binding; parameters: species or system Rat; conditions: specific binding
[17] = system: Histamine H2; assay: Eurofins radioligand binding; parameters: species or system Human; conditions: specific binding
[18] = system: Imidazoline I2, Central; assay: Eurofins radioligand binding; parameters: species or system Rat; conditions: specific binding
[19] = system: Neuropeptide Y Y1; assay: Eurofins radioligand binding; parameters: species or system Human; conditions: specific binding
[20] = system: Neuropeptide Y Y2; assay: Eurofins radioligand binding; parameters: species or system Human; conditions: specific binding
[21] = system: Platelet Activating Factor (PAF); assay: Eurofins radioligand binding; parameters: species or system Human; conditions: specific binding
[22] = system: Potassium Channel [KATP]; assay: Eurofins radioligand binding; parameters: species or system Hamster; conditions: specific binding
[23] = system: Purinergic P2X; assay: Eurofins radioligand binding; parameters: species or system Rat; conditions: specific binding
[24] = system: Serotonin (5-HT3); assay: Eurofins radioligand binding; parameters: species or system Human; conditions: specific binding

T1 sequence (P12657 whole entry): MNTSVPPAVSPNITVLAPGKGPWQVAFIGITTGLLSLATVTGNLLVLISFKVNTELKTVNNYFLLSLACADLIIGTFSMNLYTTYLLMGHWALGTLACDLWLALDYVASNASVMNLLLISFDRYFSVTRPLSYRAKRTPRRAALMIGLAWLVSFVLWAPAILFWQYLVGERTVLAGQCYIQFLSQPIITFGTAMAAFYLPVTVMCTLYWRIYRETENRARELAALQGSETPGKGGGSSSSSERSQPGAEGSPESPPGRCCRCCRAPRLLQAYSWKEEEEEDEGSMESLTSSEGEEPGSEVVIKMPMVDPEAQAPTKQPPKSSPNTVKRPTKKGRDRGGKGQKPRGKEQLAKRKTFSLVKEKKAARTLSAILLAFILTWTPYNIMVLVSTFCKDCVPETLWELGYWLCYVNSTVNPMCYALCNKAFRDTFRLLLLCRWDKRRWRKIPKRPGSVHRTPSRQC

For `Cn1ccc(-c2ccc(Cc3cc(C(=O)NC4CCOCC4)nc4ccn(C)c34)cc2)n1` [compound 11], the EC50 [1] was 92 nM, the “mouse M1 PAM ACh max” value [1] was 66% and the “effect on recognition memory (NOR)” value ([2]; rats, 0.1, 0.3, 1, and 3 mg/kg p.o., 30 min pretreatment, assessed 24 h later) was “dose-dependently enhanced recognition memory”. The “minimum effective dose (MED) in novel object recognition” value ([2]; rats, p.o.) was 3 mg/kg, the “share of hepatic CYP-mediated clearance, rCYP2J2” value [3] was 2.4% and the “share of hepatic CYP-mediated clearance, rCYP3A4” value [4] was 97.6%. The Cmax ([5]; male, Sprague-Dawley, po, rat, 100 mg/kg p.o.) was 9.1 µM, the Cmax ([5]; male, Sprague-Dawley, po, rat, 300 mg/kg p.o.) was 17.2 µM and the Tmax ([5]; male, Sprague-Dawley, in vivo, po, rat, 3, 10, 30, 100, and 300 mg/kg p.o., all doses) was < 2 h. For the same compound, the “fold over the NOR MED exposure” value ([5]; rat, 100 mg/kg p.o.) was ~9 fold, the “unbound brain concentration at Cmax” value ([5]; rat, 100 mg/kg p.o.) was 0.298 µM and the “fold over the NOR MED exposure” value ([5]; rat, 300 mg/kg p.o.) was ~17 fold. The “unbound brain concentration at Cmax” value ([5]; rat, 300 mg/kg p.o.) was 0.569 µM, the adverse cholinergic events ([5]; rat, 100 and 300 mg/kg p.o. dose groups, after 4.5 h) was “severe adverse cholinergic events” and the “dose proportionality of exposure” value ([5]; rat, from 3 to 30 mg/kg p.o.) was “Linear dose escalation”. The cholinergic toxicity ([5]; rats, 30 mg/kg p.o.) was “not observed”, the “window from the MED” value ([5]; rats, 30 mg/kg p.o. vs MED 3 mg/kg) was 10 fold and the “% Inhibition at 10 µM” value [6] was 14%. For the same compound, the “% Inhibition at 10 µM” value [7] was -7%, the “% Inhibition at 10 µM” value [8] was -14% and the “% Inhibition at 10 µM” value [9] was 7%. For the same compound, the “% Inhibition at 10 µM” value [10] was -3%, the “% Inhibition at 10 µM” value [11] was 8% and the “% Inhibition at 10 µM” value [12] was 5%. For the same compound, the “% Inhibition at 10 µM” value [13] was 1%, the “% Inhibition at 10 µM” value [14] was 3% and the “% Inhibition at 10 µM” value [15] was -1%. The “% Inhibition at 10 µM” value [16] was 7%, the “% Inhibition at 10 µM” value [17] was 28% and the “% Inhibition at 10 µM” value [18] was -9%. For the same compound, the “% Inhibition at 10 µM” value [19] was -10%, the “% Inhibition at 10 µM” value [20] was 31% and the “% Inhibition at 10 µM” value [21] was -13%. For the same compound, the “% Inhibition at 10 µM” value [22] was 11%, the “% Inhibition at 10 µM” value [23] was 17% and the “% Inhibition at 10 µM” value [24] was -3%.
